Earlier results, collected in patent US20040037773A1, “Method for detecting abnormal tissue using enhanced radiopharmaceutical uptake” (Block Medical Center, priority 2002, published 2004).

Test system: mitochondria
Settings: energy dependent manner

[99Tc+].[C-]#[N+]CC(C)(C)OC.[C-]#[N+]CC(C)(C)OC.[C-]#[N+]CC(C)(C)OC.[C-]#[N+]CC(C)(C)OC.[C-]#[N+]CC(C)(C)OC.[C-]#[N+]CC(C)(C)OC [sestamibi, Technetium-99m hexakis 2-methoxyisobutylisonitrile]
Share of sestamibi taken up by mitochondria: over 90%
